Patent US20120245137A1 (Zalicus Pharmaceuticals Ltd., priority 2009, published 2012)
Like-named read-outs stand apart in the source and are kept apart here.

Columns and labels:
Type in all cases: cell-based
[1] = target: Human Cav 2.2 channels (Homo sapiens, UniProt Q00975); experiment: Fluorescent assay for CaV2.2 channels using potassium depolarization (VIPR/FLIPR); conditions: FLIPR data
Method in brief: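 Fluo-4 calcium fluorescence (480/535 nm) was recorded on VIPR or FLIPR after depolarization to 70 mM final potassium. Before this, cells were preincubated 30 min at 25 °C with compound in 4–30 mM potassium, so that state-dependent block could be assessed; the cells were HEK293 coexpressing Cav2.2, α2δ, β and Kir2.3.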

[2] = target: T1, CAv1.2 (Homo sapiens, UniProt Q13936); experiment: FLIPR data, CAv1.2 channel blocking (Table 6); conditions: for CAv1.2 IC50 Ratio closed/inact.: ratio closed/inactivated IC50
[3] = target: T-type calcium channel (Homo sapiens, UniProt O43497); experiment: T-type channel blocking, FLIPR data (Table 6); conditions: CAv3.1
Sequence of T-type calcium channel (Homo sapiens, UniProt O43497) (O43497 whole entry): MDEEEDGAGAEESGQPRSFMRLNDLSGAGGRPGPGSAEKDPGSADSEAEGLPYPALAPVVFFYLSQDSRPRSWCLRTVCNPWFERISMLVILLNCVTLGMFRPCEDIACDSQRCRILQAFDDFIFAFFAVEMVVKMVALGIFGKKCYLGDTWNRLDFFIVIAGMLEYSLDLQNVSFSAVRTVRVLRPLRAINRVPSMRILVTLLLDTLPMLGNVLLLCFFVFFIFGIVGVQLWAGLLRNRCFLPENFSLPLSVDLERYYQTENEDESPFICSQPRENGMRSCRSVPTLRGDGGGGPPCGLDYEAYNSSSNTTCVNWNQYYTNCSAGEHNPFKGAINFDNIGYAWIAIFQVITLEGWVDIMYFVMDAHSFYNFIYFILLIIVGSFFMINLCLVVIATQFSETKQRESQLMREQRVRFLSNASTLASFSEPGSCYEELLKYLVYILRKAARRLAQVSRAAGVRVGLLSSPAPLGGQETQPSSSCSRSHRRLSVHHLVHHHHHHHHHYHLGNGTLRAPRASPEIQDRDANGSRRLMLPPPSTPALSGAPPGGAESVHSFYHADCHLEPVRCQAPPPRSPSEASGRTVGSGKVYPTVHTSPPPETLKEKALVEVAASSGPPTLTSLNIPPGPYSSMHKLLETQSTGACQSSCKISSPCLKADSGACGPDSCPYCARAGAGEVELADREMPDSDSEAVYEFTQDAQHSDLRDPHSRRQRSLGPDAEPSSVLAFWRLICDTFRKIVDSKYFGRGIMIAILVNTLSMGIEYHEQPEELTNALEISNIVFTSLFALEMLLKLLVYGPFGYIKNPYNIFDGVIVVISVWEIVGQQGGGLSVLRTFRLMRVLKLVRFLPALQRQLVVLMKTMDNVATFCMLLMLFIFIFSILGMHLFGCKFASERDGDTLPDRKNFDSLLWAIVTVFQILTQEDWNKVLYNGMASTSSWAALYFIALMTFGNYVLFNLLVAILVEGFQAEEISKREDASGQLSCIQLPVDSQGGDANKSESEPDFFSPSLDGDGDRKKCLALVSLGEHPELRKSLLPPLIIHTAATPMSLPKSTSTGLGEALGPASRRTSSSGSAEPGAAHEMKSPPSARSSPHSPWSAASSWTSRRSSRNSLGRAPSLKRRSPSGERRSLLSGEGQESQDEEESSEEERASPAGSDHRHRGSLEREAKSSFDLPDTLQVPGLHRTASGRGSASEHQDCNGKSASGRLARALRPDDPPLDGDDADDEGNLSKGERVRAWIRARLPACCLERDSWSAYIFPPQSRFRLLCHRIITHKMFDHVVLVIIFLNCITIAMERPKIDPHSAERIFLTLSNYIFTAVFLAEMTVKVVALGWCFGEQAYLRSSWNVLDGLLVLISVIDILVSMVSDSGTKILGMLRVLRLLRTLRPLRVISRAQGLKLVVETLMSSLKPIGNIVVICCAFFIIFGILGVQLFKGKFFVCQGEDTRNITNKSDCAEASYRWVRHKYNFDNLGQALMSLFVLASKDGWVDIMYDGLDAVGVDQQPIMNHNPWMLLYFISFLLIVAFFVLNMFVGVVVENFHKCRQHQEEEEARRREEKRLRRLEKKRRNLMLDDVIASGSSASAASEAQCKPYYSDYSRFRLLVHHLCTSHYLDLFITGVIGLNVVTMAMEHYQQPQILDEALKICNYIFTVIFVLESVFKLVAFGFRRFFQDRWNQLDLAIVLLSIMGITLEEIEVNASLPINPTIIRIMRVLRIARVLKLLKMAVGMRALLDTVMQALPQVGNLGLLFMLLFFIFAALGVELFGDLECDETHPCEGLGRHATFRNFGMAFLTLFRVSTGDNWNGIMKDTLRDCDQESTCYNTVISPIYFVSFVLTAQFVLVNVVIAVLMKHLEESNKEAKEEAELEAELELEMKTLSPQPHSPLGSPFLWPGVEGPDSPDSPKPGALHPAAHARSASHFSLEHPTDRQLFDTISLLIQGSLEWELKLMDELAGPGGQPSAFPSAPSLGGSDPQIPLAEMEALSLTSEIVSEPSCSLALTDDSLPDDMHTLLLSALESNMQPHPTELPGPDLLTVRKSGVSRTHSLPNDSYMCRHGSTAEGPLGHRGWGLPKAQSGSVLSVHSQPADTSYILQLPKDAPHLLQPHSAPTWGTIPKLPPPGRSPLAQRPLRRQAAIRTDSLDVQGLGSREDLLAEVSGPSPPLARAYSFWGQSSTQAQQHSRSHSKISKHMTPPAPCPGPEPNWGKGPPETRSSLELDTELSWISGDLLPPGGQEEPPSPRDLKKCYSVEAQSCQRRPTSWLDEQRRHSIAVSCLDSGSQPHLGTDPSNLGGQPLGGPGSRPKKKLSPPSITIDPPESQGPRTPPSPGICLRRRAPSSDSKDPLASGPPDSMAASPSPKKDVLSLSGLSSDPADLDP
From the text: (§1) Another method, high-throughput spectrophotometric assay, utilizes loading of the cell lines with a fluorescent dye sensitive to intracellular calcium concentration and subsequent examination of the effects of compounds on the ability of depolarization by potassium chloride or other means to alter intracellular calcium levels.

[4] = target: T-type calcium channel (Homo sapiens, UniProt O95180); experiment: T-type channel blocking, FLIPR data (Table 6)
Sequence of T-type calcium channel (Homo sapiens, UniProt O95180) (O95180 whole entry): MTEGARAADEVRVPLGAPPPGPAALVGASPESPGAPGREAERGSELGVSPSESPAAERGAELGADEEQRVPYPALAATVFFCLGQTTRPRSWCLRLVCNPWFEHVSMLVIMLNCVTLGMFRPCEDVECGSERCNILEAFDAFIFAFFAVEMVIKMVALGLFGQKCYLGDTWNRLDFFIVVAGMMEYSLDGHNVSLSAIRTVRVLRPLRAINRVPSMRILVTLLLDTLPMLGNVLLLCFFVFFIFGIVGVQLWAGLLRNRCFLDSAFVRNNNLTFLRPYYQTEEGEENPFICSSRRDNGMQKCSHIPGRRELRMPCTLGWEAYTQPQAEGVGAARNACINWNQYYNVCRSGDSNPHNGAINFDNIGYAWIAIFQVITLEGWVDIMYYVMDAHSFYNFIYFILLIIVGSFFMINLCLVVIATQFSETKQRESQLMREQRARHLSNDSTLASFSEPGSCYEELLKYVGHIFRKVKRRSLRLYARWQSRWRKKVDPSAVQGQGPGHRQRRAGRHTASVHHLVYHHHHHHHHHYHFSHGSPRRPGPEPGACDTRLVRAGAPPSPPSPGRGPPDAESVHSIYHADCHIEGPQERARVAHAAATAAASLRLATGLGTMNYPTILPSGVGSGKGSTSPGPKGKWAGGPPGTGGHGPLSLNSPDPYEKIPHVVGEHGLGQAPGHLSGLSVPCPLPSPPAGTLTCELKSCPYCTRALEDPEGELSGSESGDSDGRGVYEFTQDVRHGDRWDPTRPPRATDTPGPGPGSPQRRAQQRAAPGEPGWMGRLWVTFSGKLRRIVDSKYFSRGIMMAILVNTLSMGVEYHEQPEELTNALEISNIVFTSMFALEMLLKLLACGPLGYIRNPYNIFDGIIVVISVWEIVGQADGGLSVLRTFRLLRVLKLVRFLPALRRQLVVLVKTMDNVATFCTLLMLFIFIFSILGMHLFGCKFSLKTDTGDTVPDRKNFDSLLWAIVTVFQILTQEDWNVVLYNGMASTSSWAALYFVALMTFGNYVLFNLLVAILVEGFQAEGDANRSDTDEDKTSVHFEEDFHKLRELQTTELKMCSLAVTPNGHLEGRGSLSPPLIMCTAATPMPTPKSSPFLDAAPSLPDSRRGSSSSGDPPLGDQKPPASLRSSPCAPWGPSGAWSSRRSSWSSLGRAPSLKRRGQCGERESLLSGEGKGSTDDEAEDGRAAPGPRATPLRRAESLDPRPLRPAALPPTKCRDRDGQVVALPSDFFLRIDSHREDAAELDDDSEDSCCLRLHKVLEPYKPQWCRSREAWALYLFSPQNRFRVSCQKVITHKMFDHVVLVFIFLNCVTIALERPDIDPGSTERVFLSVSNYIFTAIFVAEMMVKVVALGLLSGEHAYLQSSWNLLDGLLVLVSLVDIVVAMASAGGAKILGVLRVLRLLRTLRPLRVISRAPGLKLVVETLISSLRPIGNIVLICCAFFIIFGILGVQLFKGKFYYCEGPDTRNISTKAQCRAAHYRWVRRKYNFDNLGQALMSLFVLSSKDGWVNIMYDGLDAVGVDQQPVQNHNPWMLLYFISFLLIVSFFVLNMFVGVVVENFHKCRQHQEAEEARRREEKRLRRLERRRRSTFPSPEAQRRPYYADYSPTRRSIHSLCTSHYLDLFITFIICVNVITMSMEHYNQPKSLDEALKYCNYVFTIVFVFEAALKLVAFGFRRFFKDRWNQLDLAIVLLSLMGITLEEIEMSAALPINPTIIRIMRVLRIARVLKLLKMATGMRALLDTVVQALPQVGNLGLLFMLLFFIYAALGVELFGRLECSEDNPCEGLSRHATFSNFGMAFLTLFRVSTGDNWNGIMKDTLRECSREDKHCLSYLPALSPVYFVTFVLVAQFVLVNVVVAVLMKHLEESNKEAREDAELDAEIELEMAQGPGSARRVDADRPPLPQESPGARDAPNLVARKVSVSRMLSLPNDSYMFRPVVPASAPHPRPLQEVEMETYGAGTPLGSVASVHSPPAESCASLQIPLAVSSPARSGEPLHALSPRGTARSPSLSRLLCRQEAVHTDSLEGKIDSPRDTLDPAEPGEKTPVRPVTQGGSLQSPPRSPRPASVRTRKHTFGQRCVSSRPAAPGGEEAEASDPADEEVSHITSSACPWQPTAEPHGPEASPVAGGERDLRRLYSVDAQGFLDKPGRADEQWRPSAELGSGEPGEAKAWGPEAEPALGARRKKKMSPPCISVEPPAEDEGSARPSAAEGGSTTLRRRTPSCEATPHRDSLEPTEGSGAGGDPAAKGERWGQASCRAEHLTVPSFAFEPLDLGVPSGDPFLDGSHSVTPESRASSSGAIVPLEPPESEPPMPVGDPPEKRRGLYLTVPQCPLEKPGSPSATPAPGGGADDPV
From the text: as §1

[5] = target: T1, CAv1.2; experiment: L-type (CAv1.2) channel blocking, FLIPR data (Table 6)
[6] = closed state, read-out: CAv2.2 IC50 Closed
[7] = inactivated state, read-out: CAv2.2 IC50 Inact.
[8] = closed state, read-out: CAv1.2 IC50 Closed
[9] = inactivated state, read-out: CAv1.2 IC50 Inact.
[10] = CAv3.2, closed state, read-out: CAv3.2 IC50 Closed
[11] = CAv3.2, inactivated state, read-out: CAv3.2 IC50 Inact.
[12] = CAv3.2, ratio closed/inactivated IC50

Structure (SMILES) | IC50 [1, 6] [nM] | IC50 [1, 7] [nM] | CAv2.2 IC50 Ratio closed/inact. ([1]; ratio closed/inactivated IC50) | IC50 [3] [µM] | IC50 [4, 10] [µM] | IC50 [4, 11] [µM] | CAv3.2 IC50 Ratio closed/inact. [4, 12] | CAv2.2 IC50 Ratio closed/inact. ([1]; ratio closed/inact.) | CAv3.2 IC50 Ratio closed/inact. ([4]; CAv3.2, ratio closed/inact.) | IC50 [2, 8] [µM] | IC50 [2, 9] [µM] | CAv1.2 IC50 Ratio closed/inact. [2] | IC50 [5, 8] [µM] | IC50 [5, 9] [µM] | CAv1.2 IC50 Ratio closed/inact. [5]
CC(C)(C[C@H]1C[C@H](NC(=O)c2ccc(C(F)(F)F)nc2)C1)S(=O)(=O)c1cccc(C(F)(F)F)c1 [Compound 723] | 3140 | 490 | 6.4 | 7.86 | 6.22 | 5.1 | 1.2 |  |  | ≥ 10 | 4.89 | 2 |  |  | 
CC(C)(C[C@H]1C[C@H](NC(=O)c2ccc(OCC(F)(F)F)nc2)C1)S(=O)(=O)c1cccc(C(F)(F)F)c1 [Compound 724] | 980 | 90 | 10.9 | 1.41 | 2.24 | 0.83 | 2.7 |  |  | 5.23 | 1.21 | 4.3 |  |  | 
CC(C)S(=O)(=O)c1cc(C(F)(F)F)cnc1C(=O)N[C@H]1C[C@@H](CC(C)(C)S(=O)(=O)c2cccc(C(F)(F)F)c2)C1 [Compound 729] | 6900 | 150 | 46 | 8.24 | 8.13 | 6.78 | 1.2 |  |  | ≥ 10 | 9.3 | 1.1 |  |  | 
CC(C)(C[C@H]1C[C@@H](NC(=O)c2ccc(Cl)cc2S(C)(=O)=O)C1)S(=O)(=O)c1cccc(C(F)(F)F)c1 [Compound 731] | 5380 | 230 | 23.4 | ≥ 10 | 6.36 | 6.67 | 1 |  |  | ≥ 10 | ≥ 10 |  |  |  | 
CC(C)(C[C@H]1C[C@@H](NC(=O)c2ccc(C(F)(F)F)cc2)C1)S(=O)(=O)c1cccc(C(F)(F)F)c1 [Compound 732] | 920 | 60 | 15.3 | 3.81 | 0.57 | 0.76 | 0.8 |  |  | 2.89 | 0.62 | 4.7 |  |  | 
CC(C)(C[C@H]1C[C@@H](NC(=O)c2ccc(OCC(F)(F)F)nc2)C1)S(=O)(=O)c1cccc(C(F)(F)F)c1 [Compound 737] | 860 | 40 | 21.5 | 2.18 | 2.06 | 0.52 | 4 |  |  | 4.23 | 1.28 | 3.3 |  |  | 
O=C(c1ccc(OCC(F)(F)F)nc1)N1CC(CS(=O)(=O)c2cc(F)cc(C(F)(F)F)c2)C1 [Compound 747] | 10000 | 5050 |  | ≥ 10 | 9.95 | 5.57 |  | 2 | 1.8 |  |  |  | ≥ 10 | 8.8 | 1.1
CC(C)S(=O)(=O)c1cc(C(F)(F)F)cnc1C(=O)NC[C@H]1C[C@H](S(=O)(=O)c2cccc(Cl)c2)C1 [Compound 770] | 10000 | 2290 |  |  | ≥ 10 | 10 |  | 4.4 | 1 |  |  |  | ≥ 10 | ≥ 10 | 
O=C(NC[C@H]1C[C@H](S(=O)(=O)c2cccc(Cl)c2)C1)c1ccc(Cl)cn1 [Compound 772] |  | 5670 |  |  | ≥ 10 | 10 |  | 1.8 | 1 |  |  |  | ≥ 10 |  | 
O=C(NC[C@H]1C[C@H](S(=O)(=O)c2cccc(Cl)c2)C1)c1ccc(C(F)(F)F)cn1 [Compound 774] | 9980 | 4320 |  |  | 6.63 | 10 |  | 2.3 | 0.7 |  |  |  | ≥ 10 | 6.45 | 1.6
N[C@H]1CCCC[C@@H]1C(=O)NC[C@H]1C[C@H](S(=O)(=O)c2cccc(Cl)c2)C1 [Compound 779] | 10000 | ≥ 10000 |  |  |  | 10 |  | 1 |  |  |  |  | ≥ 10 | ≥ 10 | 
N[C@@H]1CCCC[C@@H]1C(=O)NC[C@H]1C[C@H](S(=O)(=O)c2cccc(Cl)c2)C1 [Compound 780] | 10000 | ≥ 10000 |  |  | ≥ 10 |  |  | 1 |  |  |  |  | ≥ 10 | ≥ 10 | 

Further lines, with some results ahead:

IC50 [1, 6] [nM] | IC50 [1, 7] [nM] | CAv2.2 IC50 Ratio closed/inact. ([1]; ratio closed/inactivated IC50) | IC50 [3] [µM] | IC50 [4, 10] [µM] | IC50 [4, 11] [µM] | CAv3.2 IC50 Ratio closed/inact. [4, 12] | CAv2.2 IC50 Ratio closed/inact. ([1]; ratio closed/inact.) | CAv3.2 IC50 Ratio closed/inact. ([4]; CAv3.2, ratio closed/inact.) | Structure (SMILES) | IC50 [2, 8] [µM] | IC50 [2, 9] [µM] | CAv1.2 IC50 Ratio closed/inact. [2] | IC50 [5, 8] [µM] | IC50 [5, 9] [µM] | CAv1.2 IC50 Ratio closed/inact. [5]
1630 | 140 | 11.6 | 3.6 | 2.31 | 0.68 | 3.4 |  |  | Cn1nc(C(F)(F)F)cc1C(=O)N[C@H]1C[C@H](CC(C)(C)S(=O)(=O)c2cccc(C(F)(F)F)c2)C1 [Compound 725] | 6.7 | 2.78 | 2.4 |  |  | 
500 | 50 | 10 | 6.16 | 4.61 | 1.41 | 3.3 |  |  | CC(C)(C[C@H]1C[C@@H](NC(=O)c2ccc(Cl)cn2)C1)S(=O)(=O)c1cccc(C(F)(F)F)c1 [Compound 733] | 7.27 | 3.99 | 1.8 |  |  | 
3390 | 130 | 26.1 | ≥ 10 | 8.7 | 2.27 | 3.8 |  |  | CC(C)(C[C@H]1C[C@@H](NC(=O)c2cnc(C(F)(F)F)nc2)C1)S(=O)(=O)c1cccc(C(F)(F)F)c1 [Compound 734] | ≥ 10 | 5.67 | 1.8 |  |  | 
690 | 70 | 9.9 | 3.51 | 4.55 | 1.46 | 3.1 |  |  | CC(C)(C[C@H]1C[C@@H](NC(=O)c2ccc(C(F)(F)F)cn2)C1)S(=O)(=O)c1cccc(C(F)(F)F)c1 [Compound 735] | 6.37 | 3.71 | 1.7 |  |  | 
2200 | 130 | 16.9 | ≥ 10 | 6.64 | 2.73 | 2.4 |  |  | CC(C)(C[C@H]1C[C@@H](NC(=O)c2ccc(C(F)(F)F)nc2)C1)S(=O)(=O)c1cccc(C(F)(F)F)c1 [Compound 736] | ≥ 10 | 3.32 | 3 |  |  | 
1270 | 120 | 10.6 | 5.75 | 2.25 | 0.52 | 4.3 |  |  | Cn1nc(C(F)(F)F)cc1C(=O)N[C@H]1C[C@@H](CC(C)(C)S(=O)(=O)c2cccc(C(F)(F)F)c2)C1 [Compound 738] | 5.36 | 2.34 | 2.3 |  |  | 
3910 | 850 |  | ≥ 10 | ≥ 10 | 10 |  | 4.6 | 1 | CC(C)(C[C@H]1C[C@@H](NC(=O)[C@@H]2CCCC[C@@H]2N)C1)S(=O)(=O)c1cccc(C(F)(F)F)c1 [Compound 740] |  |  |  | ≥ 10 | ≥ 10 | 
3860 | 1310 |  | ≥ 10 | ≥ 10 | 10 |  | 2.9 | 1 | CC(C)(C[C@H]1C[C@@H](NC(=O)[C@@H]2CCCC[C@H]2N)C1)S(=O)(=O)c1cccc(C(F)(F)F)c1 [Compound 741] |  |  |  | ≥ 10 | ≥ 10 | 
3370 | 1460 |  |  |  | 10 |  | 2.3 |  | CC(C)(C[C@H]1C[C@H](NC(=O)[C@H]2CCCC[C@@H]2N)C1)S(=O)(=O)c1cccc(C(F)(F)F)c1 [Compound 743] |  |  |  | ≥ 10 | ≥ 10 | 
4110 | 940 |  | ≥ 10 | ≥ 10 |  |  | 4.4 |  | CC(C)(C[C@H]1C[C@@H](NC(=O)[C@H]2CCCC[C@H]2N)C1)S(=O)(=O)c1cccc(C(F)(F)F)c1 [Compound 744] |  |  |  | ≥ 10 | ≥ 10 | 
4220 | 1210 |  | ≥ 10 | ≥ 10 | 10 |  | 3.5 | 1 | CC(C)(C[C@H]1C[C@@H](NC(=O)[C@H]2CCCC[C@@H]2N)C1)S(=O)(=O)c1cccc(C(F)(F)F)c1 [Compound 745] |  |  |  | 8.68 | ≥ 10 | 0.9
